Data published in PubChem BioAssay AID328 (DTP/NCI, 2004).
“And” between values parts separate entries of the source, which are not always exact repeats. Identical values can stand only once. Inconclusive results and toxic doses are left out.

Tested on: BDF1 mice, P388 leukemia ip, median survival T/C
Test: NCI In Vivo Anticancer Drug Screen. Data for tumor model P388 Leukemia (intraperitoneal) in B6D2F1 (BDF1) mice
Conditions: endpoint: median survival time, higher = longer survival
Procedure, shortened: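 T/C = treated-group survival ÷ vehicle-control survival; tumour transplanted into mice before dosing.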

[1] = dose: 50.0 mg/kg/injection, schedule: Q01DX009 (ip), vehicle: Klucel (hydroxypropylcellulose) (HPC)
[2] = dose: 12.5 mg/kg/injection, schedule: Q04DX003 (ip), vehicle: saline
[3] = dose: 25.0 mg/kg/injection, schedule: Q01DX009 (ip), vehicle: saline
[4] = dose: 50.0 mg/kg/injection, schedule: Q01DX009 (ip), vehicle: saline
[5] = dose: 50.0 mg/kg/injection, schedule: Q04DX003 (ip), vehicle: saline
[6] = dose: 50.0 mg/kg/injection, schedule: Q01DX009 (ip), vehicle: saline with Tween-80
[7] = dose: 25.0 mg/kg/injection, schedule: Q01DX009 (ip), vehicle: saline with Tween-80
[8] = dose: 100.0 mg/kg/injection, schedule: Q01DX009 (ip), vehicle: Klucel (hydroxypropylcellulose) (HPC)
[9] = dose: 100.0 mg/kg/injection, schedule: Q01DX009 (ip), vehicle: saline with Tween-80
[10] = dose: 200.0 mg/kg/injection, schedule: Q01DX009 (ip), vehicle: saline with Tween-80
[11] = dose: 12.5 mg/kg/injection, schedule: Q01DX009 (ip), vehicle: saline
[12] = dose: 25.0 mg/kg/injection, schedule: Q04DX003 (ip), vehicle: water
[13] = dose: 50.0 mg/kg/injection, schedule: Q04DX003 (ip), vehicle: water

`CN(C)c1ccc2c(N(C)C)cc(N(C)C)nc2c1` was tested, and the T/C (dose: 12.5 mg/kg/injection, schedule: Q01DX009 (ip), vehicle: Klucel (hydroxypropylcellulose) (HPC)) was 111 % of control, the T/C (dose: 25.0 mg/kg/injection, schedule: Q01DX009 (ip), vehicle: Klucel (hydroxypropylcellulose) (HPC)) was 89 % of control and the T/C [1] was 120 % of control.

`CCCCCCCCCC(O)CCCCCCCCC` was tested, and the T/C (dose: 100.0 mg/kg/injection, schedule: Q01DX009 (ip), vehicle: other) was 100 % of control, the T/C (dose: 200.0 mg/kg/injection, schedule: Q01DX009 (ip), vehicle: other) was 95 % of control and the T/C (dose: 400.0 mg/kg/injection, schedule: Q01DX009 (ip), vehicle: other) was 110 % of control.

`CC(C)(C)N1CCOCC1` was tested, and the T/C [2] was 109 % of control, the T/C [3] was 95 % of control and the T/C (dose: 25.0 mg/kg/injection, schedule: Q04DX003 (ip), vehicle: saline) was 95 % of control. The T/C [4] was 86 % of control, the T/C [5] was 90 % of control and the T/C (dose: 75.0 mg/kg/injection, schedule: Q04DX003 (ip), vehicle: saline) was 105 % of control. For the same compound, the T/C (dose: 115.0 mg/kg/injection, schedule: Q04DX003 (ip), vehicle: saline) was 120 % of control.

`CC(C(=O)O)C(=O)O.[NH-]C1CCCCC1[NH-].[Pt+2]` was tested, and the T/C (dose: 50.0 mg/kg/injection, schedule: Q04DX002 (ip), vehicle: Klucel (hydroxypropylcellulose) (HPC)) was 150 % of control and the T/C (dose: 200.0 mg/kg/injection, schedule: Q04DX002 (ip), vehicle: Klucel (hydroxypropylcellulose) (HPC)) was 203 % of control.

With `S=C(NCCNC(=S)[S][Sn]([c]1ccccc1)([c]1ccccc1)[c]1ccccc1)[S][Sn]([c]1ccccc1)([c]1ccccc1)[c]1ccccc1` the T/C (dose: 3.3 mg/kg/injection, schedule: Q01DX009 (ip), vehicle: saline with Tween-80) was 100 % of control, the T/C (dose: 5.0 mg/kg/injection, schedule: Q01DX009 (ip), vehicle: saline with Tween-80) was 117 % of control and the T/C (dose: 7.5 mg/kg/injection, schedule: Q01DX009 (ip), vehicle: saline with Tween-80) was 108 % of control. For the same compound, the T/C [6] was 115 % of control.

With `O=c1oc2ccccc2c(O)c1C(C/C(=N/O)c1ccccc1)c1ccccc1` (stereo not given) the T/C (dose: 6.25 mg/kg/injection, schedule: Q01DX009 (ip), vehicle: saline with Tween-80) was 99 % of control, the T/C (dose: 6.25 mg/kg/injection, schedule: Q04DX003 (ip), vehicle: saline with Tween-80) was 100 % of control and 101 % of control and the T/C (dose: 12.5 mg/kg/injection, schedule: Q01DX009 (ip), vehicle: saline with Tween-80) was 94 % of control. The T/C (dose: 12.5 mg/kg/injection, schedule: Q04DX003 (ip), vehicle: saline with Tween-80) was 92 % of control and 107 % of control, the T/C [7] was 93 % of control and the T/C (dose: 25.0 mg/kg/injection, schedule: Q04DX003 (ip), vehicle: saline with Tween-80) was 105 % of control and 108 % of control. The T/C (dose: 50.0 mg/kg/injection, schedule: Q04DX003 (ip), vehicle: saline with Tween-80) was 95 % of control and 110 % of control and the T/C (dose: 100.0 mg/kg/injection, schedule: Q04DX003 (ip), vehicle: saline with Tween-80) was 102 % of control.

For `O=S(=O)(NS(=O)(=O)c1ccc(Cl)cc1)c1ccc(Cl)cc1`, the T/C [1] was 95 % of control, the T/C [8] was 115 % of control and the T/C (dose: 100.0 mg/kg/injection, schedule: Q04DX003 (ip), vehicle: Klucel (hydroxypropylcellulose) (HPC)) was 95 % of control. The T/C (dose: 200.0 mg/kg/injection, schedule: Q01DX009 (ip), vehicle: Klucel (hydroxypropylcellulose) (HPC)) was 115 % of control and the T/C (dose: 200.0 mg/kg/injection, schedule: Q04DX003 (ip), vehicle: Klucel (hydroxypropylcellulose) (HPC)) was 86 % of control.

For `COC(OC)C12CC(OC(=O)N1)C(C)CO2` (stereo not given), the T/C [5] was 98 % of control, the T/C (dose: 100.0 mg/kg/injection, schedule: Q04DX003 (ip), vehicle: saline) was 106 % of control and the T/C (dose: 200.0 mg/kg/injection, schedule: Q04DX003 (ip), vehicle: saline) was 96 % of control.

In the case of `CN(C)c1ccc(/C=C/c2ccnc3ccc(Br)cc23)cc1`, the T/C [6] is reported as 109 % of control, the T/C [9] is reported as 114 % of control and the T/C [10] is reported as 116 % of control.

In the case of `Nc1nc(N)c2cc(N3CCCC3c3ccc(Cl)cc3)ccc2n1` (stereo not given), the T/C (dose: 3.12 mg/kg/injection, schedule: Q01DX009 (ip), vehicle: saline) is reported as 109 % of control, the T/C [11] is reported as 89 % of control and the T/C (dose: 12.5 mg/kg/injection, schedule: Q04DX003 (ip), vehicle: water) is reported as 92 % of control. The T/C [12] was 111 % of control and the T/C [13] was 115 % of control.

With `O=C(c1ccccc1)N1CC1` the T/C (dose: 25.0 mg/kg/injection, schedule: Q01DX009 (ip), vehicle: water) was 101 % of control, the T/C [12] was 115 % of control and the T/C [13] was 92 % of control. For the same compound, the T/C (dose: 100.0 mg/kg/injection, schedule: Q04DX003 (ip), vehicle: water) was 100 % of control, the T/C (dose: 200.0 mg/kg/injection, schedule: Q04DX003 (ip), vehicle: water) was 109 % of control and the T/C (dose: 400.0 mg/kg/injection, schedule: Q01DX009 (ip), vehicle: water) was 112 % of control. For the same compound, the T/C (dose: 400.0 mg/kg/injection, schedule: Q04DX003 (ip), vehicle: water) was 115 % of control.

`CCCCCCC(=O)/C=C/c1ccc(OC)cc1` was tested, and the T/C [6] was 94 % of control, the T/C [9] was 103 % of control and the T/C [10] was 90 % of control.

For `COc1ccc2cc(OC)ccc2c1`, the T/C (dose: 100.0 mg/kg/injection, schedule: Q01DX001 (ip), vehicle: saline sonified) was 100 % of control, the T/C (dose: 200.0 mg/kg/injection, schedule: Q01DX001 (ip), vehicle: saline sonified) was 100 % of control and the T/C (dose: 400.0 mg/kg/injection, schedule: Q01DX001 (ip), vehicle: saline sonified) was 100 % of control.

With `[O-][n+]1c(CN2CCCCC2)nc2cccc3c2c1-c1ccccc1-3` the T/C (dose: 12.5 mg/kg/injection, schedule: Q03HX008 (ip), vehicle: saline) was 92 % of control, the T/C (dose: 12.5 mg/kg/injection, schedule: Q03HX016 (ip), vehicle: saline) was 100 % of control and the T/C (dose: 12.5 mg/kg/injection, schedule: Q03HX024 (ip), vehicle: saline) was 96 % of control. The T/C [7] was 105 % of control, the T/C (dose: 25.0 mg/kg/injection, schedule: Q03HX008 (ip), vehicle: saline) was 95 % of control and the T/C (dose: 25.0 mg/kg/injection, schedule: Q03HX016 (ip), vehicle: saline) was 99 % of control. The T/C (dose: 25.0 mg/kg/injection, schedule: Q03HX024 (ip), vehicle: saline) was 93 % of control, the T/C [1] was 116 % of control and the T/C [6] was 108 % of control and 116 % of control. For the same compound, the T/C (dose: 50.0 mg/kg/injection, schedule: Q03HX008 (ip), vehicle: saline) was 95 % of control, the T/C (dose: 50.0 mg/kg/injection, schedule: Q03HX016 (ip), vehicle: saline) was 94 % of control and the T/C (dose: 50.0 mg/kg/injection, schedule: Q03HX024 (ip), vehicle: saline) was 110 % of control. For the same compound, the T/C (dose: 50.0 mg/kg/injection, schedule: Q08HX027 (ip), vehicle: saline) was 113 % of control, the T/C [8] was 100 % of control and the T/C (dose: 100.0 mg/kg/injection, schedule: Q03HX008 (ip), vehicle: saline) was 92 % of control. For the same compound, the T/C (dose: 100.0 mg/kg/injection, schedule: Q03HX016 (ip), vehicle: saline) was 90 % of control, the T/C (dose: 100.0 mg/kg/injection, schedule: Q03HX024 (ip), vehicle: saline) was 115 % of control and the T/C (dose: 100.0 mg/kg/injection, schedule: Q08HX027 (ip), vehicle: saline) was 119 % of control. The T/C (dose: 150.0 mg/kg/injection, schedule: Q01DX009 (oral), vehicle: saline) was 91 % of control, the T/C [10] was 158 % of control and the T/C (dose: 200.0 mg/kg/injection, schedule: Q01DX009 (ip), vehicle: saline) was 222 % of control. For the same compound, the T/C (dose: 300.0 mg/kg/injection, schedule: Q01DX009 (oral), vehicle: saline) was 95 % of control, the T/C (dose: 400.0 mg/kg/injection, schedule: Q01DX009 (ip), vehicle: Klucel (hydroxypropylcellulose) (HPC)) was 151 % of control and the T/C (dose: 400.0 mg/kg/injection, schedule: Q01DX009 (oral), vehicle: saline) was 98 % of control. The T/C (dose: 600.0 mg/kg/injection, schedule: Q01DX009 (oral), vehicle: saline) was 103 % of control.

In the case of `Nc1cc(I)c2cccnc2c1O`, the T/C (dose: 6.25 mg/kg/injection, schedule: Q01DX009 (ip), vehicle: saline) is reported as 93 % of control and 115 % of control, the T/C [11] is reported as 90 % of control and 99 % of control and the T/C [3] is reported as 123 % of control. The T/C [4] was 117 % of control and the T/C (dose: 100.0 mg/kg/injection, schedule: Q01DX009 (ip), vehicle: saline) was 124 % of control.

For `c1ccc2n[se]nc2c1`, the T/C (dose: 1.56 mg/kg/injection, schedule: Q04DX003 (ip), vehicle: saline) was 108 % of control, the T/C (dose: 3.13 mg/kg/injection, schedule: Q04DX003 (ip), vehicle: saline) was 108 % of control and 109 % of control and the T/C (dose: 6.25 mg/kg/injection, schedule: Q04DX003 (ip), vehicle: saline) was 106 % of control and 109 % of control. For the same compound, the T/C [2] was 104 % of control.
